In brackets after ≈: the same amount, converted by molar mass. A value given as a limit tells only on which side of the number the result lay.

Test [1] deals with Epithelial Cell Kinase (ECK) (Homo sapiens, UniProt P29317). The test can be described thus: Inhibition of Epithelial Cell Kinase (ECK), immobilized biotinylated peptide, HRP anti-phosphotyrosine readout. Type of test: biochemical. Particulars: IC50, substrate phosphorylation. In a few lines:
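Biotinylated peptide substrate immobilized on neutravidin plates, reacted with ECK, test drug, Mg++ and sodium vanadate at pH 7.2; ATP added to start phosphorylation. After washing, phosphopeptide detected with HRP-conjugated anti-phosphotyrosine antibody, HRP activity reflecting substrate phosphorylation. Repeat entries are separate tests of the same compound.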

Test [2] deals with T1, Kinase insert Domain containing Receptor (KDR: the catalytic domain of the VEGF receptor) (Homo sapiens, UniProt P35968).
T1 construct: KDR: the catalytic domain of the VEGF receptor
T1 sequence (P35968 834-1162 limits assumed): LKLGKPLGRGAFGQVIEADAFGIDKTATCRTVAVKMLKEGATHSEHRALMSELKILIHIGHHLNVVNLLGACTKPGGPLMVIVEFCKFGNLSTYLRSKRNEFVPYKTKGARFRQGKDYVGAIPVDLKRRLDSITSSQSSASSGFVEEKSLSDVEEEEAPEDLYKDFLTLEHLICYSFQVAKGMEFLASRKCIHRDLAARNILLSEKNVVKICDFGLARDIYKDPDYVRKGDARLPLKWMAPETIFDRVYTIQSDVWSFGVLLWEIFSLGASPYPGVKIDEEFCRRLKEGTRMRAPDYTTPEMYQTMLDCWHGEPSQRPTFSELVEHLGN
Nature of the test: Inhibition of Kinase insert Domain containing Receptor (KDR), radioactive phosphorylation of Glu:Tyr copolymer. Type of test: biochemical. Particulars: IC50, substrate phosphorylation. Summed up:
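KDR catalytic domain phosphorylates poly(Glu:Tyr 4:1) with Mg++ and sodium vanadate at pH 7.2, started by ATP plus 32P- or 33P-ATP tracer. Acid-insoluble radioactivity quantifies substrate phosphorylation. Repeat entries per compound are separate runs.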

For test [3], the target named is Recombinant human MEK 1 (MAPKK) / recombinant human ERK2 (MAPK) (Mek-Erk) (Homo sapiens, UniProt P28482+Q02750). Nature of the test: Mitogen Activated Protein Kinase (MAPK) assay, two component coupled Mek-Erk test. Type of test: biochemical. As to conditions: read-out: Mek-Erk.
Sequence of Recombinant human MEK 1 (MAPKK) / recombinant human ERK2 (MAPK) (Mek-Erk) (P28482 2-360): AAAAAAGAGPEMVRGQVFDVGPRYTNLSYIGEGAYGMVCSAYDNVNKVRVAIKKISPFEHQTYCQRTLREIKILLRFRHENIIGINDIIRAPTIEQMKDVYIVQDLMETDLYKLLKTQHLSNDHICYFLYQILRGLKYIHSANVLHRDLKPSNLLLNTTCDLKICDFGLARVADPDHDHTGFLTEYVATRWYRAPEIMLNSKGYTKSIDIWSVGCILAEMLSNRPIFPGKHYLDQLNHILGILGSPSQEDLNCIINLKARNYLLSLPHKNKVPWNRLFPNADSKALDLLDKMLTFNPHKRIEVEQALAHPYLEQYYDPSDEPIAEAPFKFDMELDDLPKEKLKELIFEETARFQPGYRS
Sequence of Recombinant human MEK 1 (MAPKK) / recombinant human ERK2 (MAPK) (Mek-Erk) (Q02750 whole entry): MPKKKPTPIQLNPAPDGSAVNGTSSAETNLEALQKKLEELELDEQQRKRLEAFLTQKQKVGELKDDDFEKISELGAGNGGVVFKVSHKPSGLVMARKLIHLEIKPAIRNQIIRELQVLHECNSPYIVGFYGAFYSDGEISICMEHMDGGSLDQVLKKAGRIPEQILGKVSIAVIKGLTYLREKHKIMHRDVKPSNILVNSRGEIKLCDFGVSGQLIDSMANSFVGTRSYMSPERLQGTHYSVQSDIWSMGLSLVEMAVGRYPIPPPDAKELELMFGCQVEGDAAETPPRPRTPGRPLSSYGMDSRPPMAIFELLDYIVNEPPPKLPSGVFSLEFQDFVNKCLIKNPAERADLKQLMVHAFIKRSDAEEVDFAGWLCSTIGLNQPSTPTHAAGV
Experimental: To evaluate inhibitors of the MAP (mitogen activated protein) kinase a two component coupled standard pharmacological test procedure, which measures phosphorylation of a serine/threonine residue in an appropriate sequence in the substrate in the presence and absence of a putative inhibitor, was used. Recombinant human MEK 1 (MAPKK) was first used to activate recombinant human ERK2 (MAPK) and the activated MAPK (ERK) was incubated with substrate (MBP peptide or MYC peptide) in the presence of ATP, Mg^+2 and radiolabeled ^33P ATP. The phosphorylated peptide was captured on a P 81 phosphocellulose filter (paper filter or embedded in microtiter plate) washed and counted by scintillation methods.
The peptide substrates used in the assay are MBP, peptide substrate ([sequence]), or synthetic Myc substrate, ([sequence]•5 TFA. The recombinant enzymes used were prepared as GST fusion proteins of human ERK 2 and human MEK 1. Inhibitor samples were prepared as 10X stocks in 10% DMSO and an appropriate aliquot was used to deliver either 10 ug/ml for a single point screening dose or 100, 10, 1, and 0.1 uM final concentration for a dose response curve. Final DMSO concentrations were less than or equal to 1%.
The reaction was run as follows in 50 mM Tris kinase buffer, pH 7.4 in a reaction volume of 50 ul. The appropriate volume of kinase buffer and inhibitor sample was added to the tube. Appropriate dilution of enzyme was delivered to give 2-5 ug recombinant MAPK (Erk ) per tube. The inhibitor was incubated with MAPK (Erk) for 30 min at 0° C. Recombinant Mek (MAPKK) ( 0.5-2.5 ug) or fully activated Mek (0.05-0.1 units) was added to activate the Erk and incubated for 30 min at 30° C. Then substrate and gamma ^33P ATP was were added to give a final concentration of 0.5- 1 mM MBPP or 250-500 uM Myc; 0.2-0.5 uCi gamma P 33 ATP/tube; 50 µM ATP final concentration. Samples were incubated at 30°C for 30 minutes and the reaction was stopped by adding 25 µl of ice cold 10 %TCA .After samples were chilled on ice for 30 min, 20 µl of sample was transferred onto P 81 phosphocellulose filter paper or appropriate MTP with embedded P 81 filter. Filter papers or MTP were washed 2 times with a large volume of 1% acetic acid, then 2 times with water. The filters or MTP were briefly air dried before addition of scintillant and samples were counted in the appropriate scintillation counter set up for reading ^33P isotope.
The raw data was captured as cpm. Sample replicates were averaged and corrected for background count. Mean cpm data was tabulated by group and % inhibition by a test compound was calculated as (corrected cpm control- corrected. cpm sample/control) X 100 = % inhibition.
Test [4] has as its system A431. Nature of the test: Inhibition of Cancer Cell Growth as Measured by Cell Number (Sulforhodamine B). Particulars: Homo sapiens, A-431, 48 h, 48 hours exposure. Type of test: cell-based, Human. As for the experimental part:
(§1) Human tumor cell lines were plated in 96-well plates (250 µl/well, 1-6 x 10^4 cells/ml) in RPMI 1640 medium, containing 5% FBS (Fetal Bovine Serum). […] After 48 hours exposure to test compounds, cells were fixed with trichloroacetic acid, and stained with Sulforhodamine B. After washing with trichloroacetic acid, bound dye was solubilized in 10 mM Tris base and optical density was determined using plate reader. Under conditions of the assay the optical density is proportional to the number of cells in the well. […] The test procedure is described in details by Philip Skehan et. al, J.Natl. Canc. Inst., 82, 1107-1112 (1990). […] Information about some of the cell lines used in these test procedures is available from the American Type Tissue Collection: Cell Lines and Hybridomas, 1994 Reference Guide, 8th Edition.

For test [5], the system named is MDA-MB-435. The description is as above. Type of test: cell-based, Human. Particulars: Homo sapiens, MDA-MB-435, 48 h, 48 hours exposure. As for the experimental part:
as §1

Test [6] relates to SK-BR3. The description is as above. Type of test: cell-based, Human. Particulars: Homo sapiens, SK-BR-3, 48 h, 48 hours exposure. As for the experimental part: as §1
Test [7] concerns SW620. Described as above. Particulars: Homo sapiens, SW-620, 48 h, 48 hours exposure. Type of test: cell-based, Human. Here is the method: as §1
Test [8] relates to A2780. Described as above. Type of test: cell-based. As to conditions: Homo sapiens, 48 hours exposure. Here is the method:
as §1

Test [9] relates to DDP. Described as above. Type of test: cell-based. As to conditions: Homo sapiens; 48 hours exposure. As for the experimental part:
as §1

For test [10], the target named is T2, epidermal growth factor receptor kinase (EGF-R Kinase, recombinant enzyme; His-tagged cytoplasmic domain of EGFR) (Homo sapiens, UniProt P00533).
T2 construct: EGFR cDNA encoding amino acids 645 - 1186 preceded by Met-Ala-(His)6; Met-Ala-(His)6 (N); made in house; host or cells: Sf9 insect cells, recombinant baculovirus vHcEGFR52
T2 sequence (P00533 669-1210): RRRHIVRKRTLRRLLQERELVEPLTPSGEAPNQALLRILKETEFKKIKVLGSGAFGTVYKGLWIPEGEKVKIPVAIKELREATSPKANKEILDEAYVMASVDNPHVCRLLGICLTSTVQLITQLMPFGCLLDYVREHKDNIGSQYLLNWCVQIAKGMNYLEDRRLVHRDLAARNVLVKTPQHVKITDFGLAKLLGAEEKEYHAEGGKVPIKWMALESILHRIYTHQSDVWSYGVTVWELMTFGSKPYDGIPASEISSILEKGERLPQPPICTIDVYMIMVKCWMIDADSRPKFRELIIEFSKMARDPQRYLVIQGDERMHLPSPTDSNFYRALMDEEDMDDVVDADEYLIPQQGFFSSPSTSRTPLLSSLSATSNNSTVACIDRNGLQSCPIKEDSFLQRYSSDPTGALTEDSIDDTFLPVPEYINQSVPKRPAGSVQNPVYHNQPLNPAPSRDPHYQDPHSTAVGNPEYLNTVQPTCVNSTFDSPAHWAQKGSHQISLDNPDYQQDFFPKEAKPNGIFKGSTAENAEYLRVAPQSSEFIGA
The test can be described thus: Inhibition of Epidermal Growth Factor Receptor Kinase (EGF-R) using recombinant enzyme, RR-SRC peptide phosphorylation, 33P-ATP. Type of test: biochemical. Summed up:
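His-tagged EGFR cytoplasmic domain (aa 645–1186, baculovirus/Sf9) preincubated with compound 10 min on ice, then RR-SRC peptide (80 µM final) and γ-33P-ATP added. Reaction run 90 min at room temperature; peptide-bound 33P counted on P81 filters, background-corrected. IC50 from dose-response of ≥3 concentrations.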

The subject of test [11] is 3T3/c-erbb2. The test can be described thus: Inhibition of Cancer Cell Growth as Measured by Cell Number (Sulforhodamine B). Type of test: cell-based. Particulars: 48 hours exposure. Here is the method:
as §1

Test [12] has as its system 3T3. The description is as above. Type of test: cell-based. As to conditions: Mus musculus, NIH3T3; 48 hours exposure. As for the experimental part:
as §1

Sequence of Epithelial Cell Kinase (ECK) (P29317 24-976, species assumed): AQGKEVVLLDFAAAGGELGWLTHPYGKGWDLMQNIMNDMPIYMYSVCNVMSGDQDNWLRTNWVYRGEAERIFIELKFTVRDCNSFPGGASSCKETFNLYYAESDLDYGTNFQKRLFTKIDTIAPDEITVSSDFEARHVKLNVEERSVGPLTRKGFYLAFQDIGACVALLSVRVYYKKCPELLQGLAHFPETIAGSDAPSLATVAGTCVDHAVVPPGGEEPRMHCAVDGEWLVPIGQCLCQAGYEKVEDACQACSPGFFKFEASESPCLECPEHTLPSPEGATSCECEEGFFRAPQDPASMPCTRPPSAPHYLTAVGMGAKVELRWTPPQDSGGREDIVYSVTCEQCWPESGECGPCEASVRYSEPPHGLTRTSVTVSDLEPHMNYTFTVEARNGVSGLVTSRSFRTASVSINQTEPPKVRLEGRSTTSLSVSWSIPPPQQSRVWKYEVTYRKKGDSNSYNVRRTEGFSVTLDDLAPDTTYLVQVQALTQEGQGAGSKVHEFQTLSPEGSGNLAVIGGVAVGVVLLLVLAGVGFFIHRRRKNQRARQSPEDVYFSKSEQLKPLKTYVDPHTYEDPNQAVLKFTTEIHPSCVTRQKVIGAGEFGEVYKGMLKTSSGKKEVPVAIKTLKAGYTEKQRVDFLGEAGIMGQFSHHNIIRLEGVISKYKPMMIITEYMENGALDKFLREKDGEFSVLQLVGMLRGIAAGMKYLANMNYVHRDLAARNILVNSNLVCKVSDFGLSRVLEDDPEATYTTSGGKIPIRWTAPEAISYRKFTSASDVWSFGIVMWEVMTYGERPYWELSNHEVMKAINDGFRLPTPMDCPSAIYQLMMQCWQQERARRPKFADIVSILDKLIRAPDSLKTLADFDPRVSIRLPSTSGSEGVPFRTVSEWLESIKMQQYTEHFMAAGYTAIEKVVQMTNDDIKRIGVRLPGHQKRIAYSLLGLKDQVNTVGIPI

With `CCOc1cc2ncc(C#N)c(Nc3ccc4c(C)cc(=O)oc4c3)c2cc1OCC` [Example 100, 6,7-Diethoxy-4-(4-methyl-2-oxo-2H-chromen-7-ylamino)-quinoline-3-carbonitrile], the IC50 was more than 48.2 µM in test [1]; more than 72.3 µM in test [2]; 3.5 µM in test [3]; 0.369 µg/mL (≈ 0.888 µM) in test [4]; 0.067 µg/mL (≈ 0.161 µM) in test [5]; 0.429 µg/mL (≈ 1.03 µM) in test [6]. Besides, the IC50 in test [7] worked out at 0.325 µg/mL (≈ 0.782 µM); in [8], 0.27 µg/mL (≈ 0.65 µM); in test [9], 0.249 µg/mL (≈ 0.599 µM).
Consider `COc1cc2ncc(C#N)c(Nc3ccc4cn[nH]c4c3)c2cc1OC` [Example 102, 6,7-Dimethoxy-4-(1H-indazol-6-ylamino)-quinoline-3-carbonitrile], for which the IC50 is more than 56.4 µM in [1]; 14.1 µM in test [2]; 1.31 µg/mL (≈ 3.79 µM) in test [4]; 0.49 µg/mL (≈ 1.42 µM) in test [5]; 0.78 µg/mL (≈ 2.26 µM) in test [6]; 2.18 µg/mL (≈ 6.31 µM) in [7]. The IC50 in test [8] stood at 1.49 µg/mL (≈ 4.32 µM); in test [9] it was 3.05 µg/mL (≈ 8.84 µM).
For `CCOc1cc2ncc(C#N)c(Nc3ccc4[nH]nnc4c3)c2cc1OCC` [Example 103, 4-(1H-Benzotriazol-5-ylamino)-6,7-diethoxy-quinoline-3-carbonitrile], the IC50 in test [1] was more than 53.4 µM; in test [4], 1.61 µg/mL (≈ 4.3 µM); in test [5], 0.309 µg/mL (≈ 0.825 µM); in [6], 0.767 µg/mL (≈ 2.05 µM); in test [7], 2.64 µg/mL (≈ 7.04 µM); in [8], 2.39 µg/mL (≈ 6.39 µM). In test [9], this compound came in with an IC50 of 2.69 µg/mL (≈ 7.18 µM).
For `CCOc1cc2ncc(C#N)c(Nc3ccc4c(c3)C(=O)NC4=O)c2cc1OCC` [Example 104, 4-(1,3-Dioxo-2,3-dihydro-1H-isoindol-5-ylamino)-6,7-diethoxy-quinoline-3-carbonitrile], the IC50 is more than 49.7 µM in [1]; more than 74.6 µM in [2]; 35 µM in test [3]; 0.049 µg/mL (≈ 0.122 µM) in [4]; 0.021 µg/mL (≈ 0.0522 µM) in test [5]; 0.034 µg/mL (≈ 0.0845 µM) in test [6]. Further, the IC50 in test [7] worked out at 0.207 µg/mL (≈ 0.514 µM); in test [8], 0.044 µg/mL (≈ 0.109 µM); in test [9] it was 0.107 µg/mL (≈ 0.266 µM).
As to `CCOc1cc2ncc(C#N)c(Nc3ccc4c(c3)C(=O)NCC(=O)N4C)c2cc1OCC` [Example 127, 6,7-Diethoxy-4-(1-methyl-2,5-dioxo-2,3,4,5-tetrahydro-1H-benzo[e][1,4]diazepin-7-ylamino)-quinoline-3-carbonitrile], the inhibition at 0.5 µM in test [10] (read-out: %Inh @ 0.5 µM) was 25%. Moreover, the IC50 was more than 1000 nM in test [10] (recombinant enzyme, 90 min at room temperature); more than 44.9 µM in test [1]; more than 67.3 µM in test [2]; more than 100 µM in test [3]; more than 5 µg/mL in test [4]; more than 5 µg/mL in [5]. The IC50 in [6], in test [7], in [11] and in test [12] was more than 5 µg/mL each time.

(Values after EP1117659B1, “SUBSTITUTED 3-CYANOQUINOLINES AS PROTEIN TYROSINE KINASES INHIBITORS” (Wyeth Holdings Corporation, priority 1998, dated 2000).)
